Measured values: ChEMBL document CHEMBL1131715 (Bioorg Med Chem Lett, 1999)

Assay: Inhibitory activity against zinc-dependent Glutamate Carboxypeptidase G

Row | SMILES | Ki [µM]
1 | CCCCP(O)(=S)N[C@@H](CCC(=O)O)C(=O)O (some centres not stated) | 0.264
2 | O=C(O)CC[C@H](NP(O)(=S)c1ccccc1)C(=O)O (some centres not stated) | 3.24
